Results published in patent US7514452B2, “2-furancarboxylic acid hydrazides and pharmaceutical compositions containing the same” (Dainippon Pharmaceutical Co., Ltd, priority 2002, dated 2009).

Key:
glucagon receptor [1] = biological target: glucagon receptor (Rattus norvegicus, UniProt P30082); test: Experiment for glucagon binding inhibition, rat hepatic membrane (125I-glucagon); conditions: male SD rat hepatic membrane, 125I-glucagon 50 pM, 25° C. for 30 minutes; read-out: Glucagon binding inhibitory activity IC50 (nM) Rat
Protocol: (§1) The preparation of membrane from mouse and rat livers was carried out according to the method described in Bioorg. Med. Chem. Lett. 1992, 12, 915-918 in this experiment and ^125I-glucagon binding activity was measured with these membranes as glucagon receptor's samples. Livers were removed from male SD rats (about 250 g body weight per rat) and male ddY mice (about 30 g body weight per mouse). […] The homogenate was centrifuged for 15 minutes at 30,000×g. […] The precipitaion thus obtained was used as a hepatic membrane sample. […] The mixture was incubated at 25° C. for 30 minutes. […] The filter was washed 3 times with 50 mM Tris-HCl buffer (pH 7.2), and the radioactivity of the filter was measured by a γ counter (ARC-360, Aloka Co., Ltd.). […] Each experiment was carried out in duplicate. […] The concentration at 50% inhibition of binding (IC50) was calculated using a pseudo Hill plot.

glucagon receptor [2] = biological target: glucagon receptor (Mus musculus, UniProt Q61606); test: Experiment for glucagon binding inhibition, mouse hepatic membrane (125I-glucagon); conditions: male ddY mouse hepatic membrane, 125I-glucagon 50 pM, 25° C. for 30 minutes; read-out: Glucagon binding inhibitory activity IC50 (nM) Mouse
Protocol: as §1

Sequence of glucagon receptor (Rattus norvegicus, UniProt P30082) (P30082 27-485): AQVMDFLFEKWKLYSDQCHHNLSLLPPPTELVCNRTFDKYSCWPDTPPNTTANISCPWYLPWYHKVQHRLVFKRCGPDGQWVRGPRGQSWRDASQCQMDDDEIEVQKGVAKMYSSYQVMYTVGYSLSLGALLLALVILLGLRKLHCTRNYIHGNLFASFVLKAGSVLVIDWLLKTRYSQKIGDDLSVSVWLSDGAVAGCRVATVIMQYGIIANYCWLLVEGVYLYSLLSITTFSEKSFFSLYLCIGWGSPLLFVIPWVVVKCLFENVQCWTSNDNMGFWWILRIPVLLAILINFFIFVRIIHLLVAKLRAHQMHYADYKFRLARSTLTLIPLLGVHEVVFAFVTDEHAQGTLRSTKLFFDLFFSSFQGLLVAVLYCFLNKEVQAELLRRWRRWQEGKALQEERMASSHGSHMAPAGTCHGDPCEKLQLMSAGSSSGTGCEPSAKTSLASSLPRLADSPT
Sequence of glucagon receptor (Mus musculus, UniProt Q61606) (Q61606 27-485): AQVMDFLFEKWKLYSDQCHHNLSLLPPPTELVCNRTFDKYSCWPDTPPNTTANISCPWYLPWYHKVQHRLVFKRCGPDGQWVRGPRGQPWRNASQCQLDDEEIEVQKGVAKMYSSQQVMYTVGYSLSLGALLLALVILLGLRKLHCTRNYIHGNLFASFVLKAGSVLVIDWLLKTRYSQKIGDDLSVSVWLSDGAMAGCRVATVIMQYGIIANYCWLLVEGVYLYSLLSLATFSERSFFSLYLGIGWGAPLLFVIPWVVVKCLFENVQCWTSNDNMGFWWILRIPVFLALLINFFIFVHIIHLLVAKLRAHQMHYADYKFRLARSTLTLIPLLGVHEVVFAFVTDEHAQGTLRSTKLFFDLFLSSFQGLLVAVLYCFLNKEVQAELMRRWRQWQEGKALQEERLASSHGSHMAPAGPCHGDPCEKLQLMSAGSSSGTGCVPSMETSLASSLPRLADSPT

Row | SMILES | IC50 (glucagon receptor [1]) | IC50 (glucagon receptor [2])
1 | Cc1cc(C)c(C)c(COc2cccc(-c3ccoc3C(=O)NNC(=O)c3ccc(O)c(C#N)c3)c2)c1C [Example 1, 3-[3-(2,3,5,6-tetramethylbenzyloxy)phenyl]-2-furancarboxylic acid 2-(3-cyano-4-hydroxybenzoyl)hydrazide] | 21 nM | 99 nM
2 | N#Cc1cc(C(=O)NNC(=O)c2occc2-c2cccc(Oc3ccccc3)c2)ccc1O [Example 2, 3-(3-phenoxyphenyl)-2-furancarboxylic acid 2-(3-cyano-4-hydroxybenzoyl)hydrazide] | 330 nM | 140 nM
3 | N#Cc1cc(C(=O)NNC(=O)c2occc2-c2cccc(OCc3ccccc3)c2)ccc1O [Example 3, 3-(3-benzyloxyphenyl)-2-furancarboxylic acid 2-(3-cyano-4-hydroxybenzoyl)hydrazide] | 30 nM | 52 nM
4 | N#Cc1cc(C(=O)NNC(=O)c2occc2-c2cccc(OCCc3ccccc3)c2)ccc1O [Example 4, 3-(3-phenethyloxyphenyl)-2-furancarboxylic acid 2-(3-cyano-4-hydroxybenzoyl)hydrazide] | 28 nM | 130 nM
5 | N#Cc1cc(C(=O)NNC(=O)c2occc2-c2ccccc2OCc2ccccc2)ccc1O [Example 5, 3-(2-benzyloxyphenyl)-2-furancarboxylic acid 2-(3-cyano-4-hydroxybenzoyl)hydrazide] | 200 nM | 130 nM
6 | N#Cc1cc(C(=O)NNC(=O)c2occc2-c2ccccc2Cc2ccccc2)ccc1O [Example 8, 3-(2-benzylphenyl)-2-furancarboxylic acid 2-(3-cyano-4-hydroxybenzoyl)hydrazide] | 170 nM | 310 nM
7 | Cc1cc(C)c(C)c(COc2ccccc2-c2ccoc2C(=O)NNC(=O)c2ccc(O)c(C#N)c2)c1C [Example 9, 3-[2-(2,3,5,6-tetramethylbenzyloxy)phenyl]-2-furancarboxylic acid 2-(3-cyano-4-hydroxybenzoyl)hydrazide] | 210 nM | 75 nM
8 | CC(C)Oc1ccccc1-c1ccoc1C(=O)NNC(=O)c1ccc(O)c(C#N)c1 [Example 10, 3-(2-isopropoxyphenyl)-2-furancarboxylic acid 2-(3-cyano-4-hydroxybenzoyl)hydrazide] | 180 nM | 230 nM
9 | CCCOc1ccccc1-c1ccoc1C(=O)NNC(=O)c1ccc(O)c(C#N)c1 [Example 11, 3-(2-propoxyphenyl)-2-furancarboxylic acid 2-(3-cyano-4-hydroxybenzoyl)hydrazide] | 140 nM | 450 nM
10 | N#Cc1cc(C(=O)NNC(=O)c2occc2-c2ccccc2OCCc2ccccc2)ccc1O [Example 12, 3-(2-phenethyloxyphenyl)-2-furancarboxylic acid 2-(3-cyano-4-hydroxybenzoyl)hydrazide] | 85 nM | 170 nM
11 | N#Cc1cc(C(=O)NNC(=O)c2occc2-c2ccccc2Oc2ccccc2)ccc1O [Example 13, 3-(2-phenoxyphenyl)-2-furancarboxylic acid 2-(3-cyano-4-hydroxybenzoyl)hydrazide] | 190 nM | 180 nM
12 | Cc1cc(C)c(C)c(COc2ccc(-c3ccoc3C(=O)NNC(=O)c3ccc(O)c(C#N)c3)cc2)c1C [Example 15, 3-[4-(2,3,5,6-tetramethylbenzyloxy)phenyl]-2-furancarboxylic acid 2-(3-cyano-4-hydroxybenzoyl)hydrazide] | 27 nM | 170 nM
13 | N#Cc1cc(C(=O)NNC(=O)c2occc2-c2ccc(Oc3ccccc3)cc2)ccc1O [Example 16, 3-(4-phenoxyphenyl)-2-furancarboxylic acid 2-(3-cyano-4-hydroxybenzoyl)hydrazide] | 87 nM | 180 nM
14 | N#Cc1cc(C(=O)NNC(=O)c2occc2-c2ccc(OCc3ccccc3)cc2)ccc1O [Example 17, 3-(4-benzyloxyphenyl)-2-furancarboxylic acid 2-(3-cyano-4-hydroxybenzoyl)hydrazide] | 99 nM | 160 nM
15 | N#Cc1cc(C(=O)NNC(=O)c2occ(-c3ccccc3)c2-c2ccccc2)ccc1O [Example 18, 3,4-diphenyl-2-furancarboxylic acid 2-(3-cyano-4-hydroxybenzoyl)hydrazide] | 41 nM | 120 nM
16 | O=C(NNC(=O)c1occ(-c2ccccc2)c1-c1ccccc1)c1ccc(O)c([N+](=O)[O-])c1 [Example 19, 3,4-diphenyl-2-furancarboxylic acid 2-(4-hydroxy-3-nitrobenzoyl)hydrazide] | 86 nM | 97 nM

Row | SMILES | IC50 (glucagon receptor [1]) | IC50 (glucagon receptor [2])
17 | Cc1cc(C)c(C)c(COc2cccc(-c3ccoc3C(=O)NNC(=O)c3ccc(O)c([N+](=O)[O-])c3)c2)c1C [Example 20, 3-[3-(2,3,5,6-tetramethylbenzyloxy)phenyl]-2-furancarboxylic acid 2-(4-hydroxy-3-nitrobenzoyl)hydrazide] | 9.2 nM | 24 nM
18 | O=C(NNC(=O)c1occ(-c2ccccc2)c1-c1ccccc1)c1ccc(O)c(C(F)(F)F)c1 [Example 43, 3,4-diphenyl-2-furancarboxylic acid 2-(4-hydroxy-3-trifluoromethylbenzoyl)hydrazide] | 160 nM | 390 nM
19 | N#Cc1cc(C(=O)NNC(=O)c2occ(COC(=O)Nc3ccccc3)c2-c2ccccc2)ccc1O [Example 53, 4-(phenylaminocarbonyloxymethyl)-3-phenyl-2-furancarboxylic acid 2-(3-cyano-4-hydroxybenzoyl)hydrazide] | 75 nM | 240 nM
20 | N#Cc1cc(C(=O)NNC(=O)c2occ(COC(=O)NCCc3ccccc3)c2-c2ccccc2)ccc1O [Example 54, 4-(Phenethylaminocarbonyloxymethyl)-3-phenyl-2-furancarboxylic acid 2-(3-cyano-4-hydroxybenzoyl)hydrazide] | 150 nM | 380 nM
21 | N#Cc1cc(C(=O)NNC(=O)c2occ(COCc3ccccc3)c2-c2ccccc2)ccc1O [Example 56, 4-Benzyloxymethyl-3-phenyl-2-furancarboxylic acid 2-(3-cyano-4-hydroxybenzoyl)hydrazide] | 150 nM | 220 nM
22 | N#Cc1cc(C(=O)NNC(=O)c2occ(C=CCCc3ccccc3)c2-c2ccccc2)ccc1O [Example 59, 3-Phenyl-4-(4-phenyl-1-butenyl)-2-furancarboxylic acid 2-(3-cyano-4-hydroxybenzoyl)hydrazide] | 35 nM | 84 nM
23 | N#Cc1cc(C(=O)NNC(=O)c2occc2-c2cccs2)ccc1O [Example 60, 3-(2-thienyl)-2-furancarboxylic acid 2-(3-cyano-4-hydroxybenzoyl)hydrazide] | 120 nM | 160 nM
24 | N#Cc1cc(C(=O)NNC(=O)c2occc2-c2ccccc2)ccc1O [Example 61, 3-phenyl-2-furancarboxylic acid 2-(3-cyano-4-hydroxybenzoyl)hydrazide] | 58 nM | 200 nM
25 | Cc1cc(C)c(C)c(COc2cccc(-c3c(-c4ccccc4)coc3C(=O)NNC(=O)c3ccc(O)c(C#N)c3)c2)c1C [Example 98, 4-phenyl-3-[3-(2,3,5,6-tetramethylbenzyloxy)phenyl]-2-furancarboxylic acid 2-(3-cyano-4-hydroxybenzoyl)hydrazide] | 1.5 nM | 4 nM
26 | Cc1cc(C)c(C)c(COc2cccc(-c3coc(C(=O)NNC(=O)c4ccc(O)c(C#N)c4)c3-c3ccccc3)c2)c1C [Example 99, 3-phenyl-4-[3-(2,3,5,6-tetramethylbenzyloxy)phenyl]-2-furancarboxylic acid 2-(3-cyano-4-hydroxybenzoyl)hydrazide] | 3.4 nM | 13 nM
27 | Cc1cc(C)c(C)c(COc2cccc(-c3c(-c4ccccc4)coc3C(=O)NNC(=O)c3ccc(O)c([N+](=O)[O-])c3)c2)c1C [Example 100, 4-phenyl-3-[3-(2,3,5,6-tetramethylbenzyloxy)phenyl]-2-furancarboxylic acid 2-(4-hydroxy-3-nitrobenzoyl)hydrazide] | 5.8 nM | 9.1 nM
28 | O=C(NNC(=O)c1occc1-c1cccc(OCc2ccccc2)c1)c1ccc(O)c([N+](=O)[O-])c1 [Example 101, 3-(3-benzyloxyphenyl)-2-furancarboxylic acid 2-(4-hydroxy-3-nitrobenzoyl)hydrazide] | 33 nM | 28 nM
29 | N#Cc1cc(C(=O)NNC(=O)c2occc2-c2cccc(OCc3ccncc3)c2)ccc1O [Example 102, 3-[3-(4-pyridylmethyloxy)phenyl]-2-furancarboxylic acid 2-(3-cyano-4-hydroxybenzoyl)hydrazide] | 95 nM | 93 nM
30 | N#Cc1cc(C(=O)NNC(=O)c2occc2-c2cccc(OCC(O)c3ccccc3)c2)ccc1O (centres unmarked) [Example 108, 3-[3-(2-Hydroxy-2-phenylethoxy)phenyl]-2-furancarboxylic acid 2-(3-cyano-4-hydroxybenzoyl)hydrazide] | 110 nM | 310 nM
31 | N#Cc1cc(C(=O)NNC(=O)c2occ(-c3cccc(OCc4ccccc4)c3)c2-c2cccc(OCc3ccccc3)c2)ccc1O [Example 115, 3,4-bis(3-benzyloxyphenyl)-2-furancarboxylic acid 2-(3-cyano-4-hydroxybenzoyl)hydrazide] | 54 nM | 80 nM
